According to US5192799A, “Coumaran group containing amine compounds and their acid addition salts and quaternary ammonium salts and the use thereof as anti arrhythmic agents and as psychotropic agents” (Mitsui Petrochemical Industries, Ltd., priority 1987, dated 1993):
Where two headings read alike, the source gives them in different places.

What was measured:
Purkinje fiber = test: Effect on APD (APD75, field-stimulated right ventricular free wall); assay type: cell-based, adult mongrel dog; conditions: for activation at 1 µg/mL / activation at 3 µg/mL / activation at 10 µg/mL: Canis lupus familiaris, purkinje, 20 min, read-out: APD75 % (percent change in APD75)
Experimental: The pharmacological effects of the compounds of this invention represented by general formula (1) were studied. By using the heart of an adult mongrel dog, the activity of the compounds of general formula (1) were tested in vitro and in vivo. The heart of an anaethetized dog was extracted and suspended in a chamber at 37° C. in Tyrode's solution. The drug was added to Tyrode's solution being perfused through the heart specimen, and electrophysiological effects of the drug on cardiac action potential duration (APD) and maximum rate of depolarization were studied. An anaethetized dog was cut open at the chest.
An adult mongrel dog was anaethetized with intravenous administration of pentobarbital, 30 mg/kg. The heart was quickly removed, and the right ventricular free wall was dissected in the Tyrode's solution. The right ventricular free wall was fixed within an incubator at 37° C., and field stimulation at 1 Hz was carried out. Intracellular potentials were measured by piercing glass microelectrodes (10-20 megaohms) into the Purkinje fiber and the wave form of cardiac action potential drawn on an oscilloBraun tube via an amplifier was analyzed by a computer. Value of APD was obtained at 75% of full repolarization (APD75). The drug was added to Tyrode's solution (20 ml) perfused through the specimen. The effect of the drug was expressed by a percent change in APD75 after incubation for 20 minutes with the control value of APD before application of the drug being taken as 100%.

[1] = system: right ventricle (effective refractory period); test: Activity on ERP of the right ventricle; assay type: in vivo, adult mongrel dog; conditions: Canis lupus familiaris, read-out: ERP % (ERP prolonging activity)
Experimental: The pharmacological effects of the compounds of this invention represented by general formula (1) were studied. By using the heart of an adult mongrel dog, the activity of the compounds of general formula (1) were tested in vitro and in vivo. The heart of an anaethetized dog was extracted and suspended in a chamber at 37° C. in Tyrode's solution. The drug was added to Tyrode's solution being perfused through the heart specimen, and electrophysiological effects of the drug on cardiac action potential duration (APD) and maximum rate of depolarization were studied. An anaethetized dog was cut open at the chest. […] In an anaethetized and open-chested adult mongrel dug, a silver-silver chloride electrode was sutured to the right ventricle, and ventricular pacing was performed at a stimulation interval of 400 msec for a duration time of 4 msec, twice diastolic threshold. Then, a small amount of alcohol was injected through the sinus artery to extinguish the pacemaker activity, and under ventricular pacing, ERP was measured. Ten stimulations were taken as one train, and the interval between trains when the response to the first stimulation disappeared was defined as ERP. […] ERP before drug administration (intravenously or intraduodenally) was taken as 100%, and ERP prolonging activity of the drugs was expressed by %.

in vivo = conditions: mouse, in vivo, 24 hours after administration, male ddY mice
Experimental: By using male ddY-strain 5-week old mice (3 to 4 per group), the compounds of general formula (1) were each administered orally or intraperitoneally as a solution in saline or as a suspension in methyl cellulose, and 24 hours after the administration, the toxicity of the compounds was evaluated.

[2] = dose 1 μg/ml, 20 minutes incubation, 37° C., 1 Hz, control before drug = 100%
[3] = dose 3 μg/ml, 20 minutes incubation, 37° C., 1 Hz, control before drug = 100%
[4] = dose 10 μg/ml, 20 minutes incubation, 37° C., 1 Hz, control before drug = 100%
[5] = iv, 0.1 mg/kg i.v., ERP before drug = 100%
[6] = iv, 0.3 mg/kg i.v., ERP before drug = 100%
[7] = iv, 1 mg/kg i.v., ERP before drug = 100%
[8] = iv, 3 mg/kg i.v., ERP before drug = 100%

| SMILES | activation at 1 µg/mL (Purkinje fiber; [2]) [%] | activation at 3 µg/mL (Purkinje fiber; [3]) [%] | activation at 10 µg/mL (Purkinje fiber; [4]) [%] | change in vivo at 0.1 mg/kg [1, 5] [%] | change in vivo at 0.3 mg/kg [1, 6] [%] | change in vivo at 1 mg/kg [1, 7] [%] | LD50 at 24 h (in vivo; po, LD50 p.o., p.o.) [mg/kg] | other results |
| --- | --- | --- | --- | --- | --- | --- | --- | --- |
| CC(C)N(CCCOc1ccc2c(c1)OCC2=O)C(C)C [Compound 116] | 14 | 38 | 44 | 3 | 7 | 9 | > 300 | change in vivo at 3 mg/kg [1, 8]: 9% |
| CCCCN(CCCOc1ccc2c(c1)OCC2=O)CC(C)C [Compound 128] | 9 | 18 | – | – | – | – | > 300 | – |
| CC(C)CN(CCCOc1ccc2c(c1)OCC2=O)CC(C)C [Compound 132] | 7 | 18 | 21 | 2.4 ± 2.4 | 2.4 ± 2.4 | 4.8 ± 4.8 | > 300 | change in vivo at 3 mg/kg [1, 8]: 4.8 ± 4.8% |
| C=CCN(CCCOc1ccc2c(c1)OCC2=O)C1CCCCC1 [Compound 160] | 0 | 7 | 11 | – | – | – | > 300 | – |
| CCN(CCCOc1ccc2c(c1)OCC2=O)CC1CCCO1 (stereo not shown) [Compound 184] | – | 16 | 31 | 4.3 ± 2.2 | 6.3 ± 3.4 | 6.3 ± 3.4 | ~300 | – |
| CCN(CCCCCCO)CCCOc1ccc2c(c1)OCC2=O [Compound 188] | 17 | 19 | 19 | – | – | – | > 300 | – |
| CCCCCCCN(CC)CCOc1ccc2c(c1)OCC2=O [Compound 196] | 7 | 10 | 11 | 5 | 5 | 18 | ~300 | – |
| CCCCCN(CC)CCCCOc1ccc2c(c1)OCC2=O [Compound 208] | 0 | 5 | 9 | – | – | – | ~300 | – |
| CCCCCCCN(CC)CCCCOc1ccc2c(c1)OCC2=O [Compound 212] | 4 | 8 | – | 7.1 ± 3.4 | 7.1 ± 3.4 | 13.8 ± 3.6 | 300 to 600 | change in vivo at 3 mg/kg [1, 8]: 13.8 ± 3.6% |
| CCCCCCCN(CC)CC(O)COc1ccc2c(c1)OCC2=O.Cc1ccc(S(=O)(=O)O)cc1 (stereo not shown) [Compound 216, 6-[3-(N-ethyl-N-heptylamino)-2-hydroxypropyloxy]coumaran-3-one p-toluenesu lfonate] | – | – | – | – | – | – | 300 to 600 | activation at 1 µg/mL (Purkinje fiber): 13%; activation at 3 µg/mL (Purkinje fiber): 17%; change in vivo at 0.1 mg/kg ([1]; iv): 8%; change in vivo at 0.3 mg/kg ([1]; iv): 8%; change in vivo at 1 mg/kg ([1]; iv): 8%; change in vivo at 3 mg/kg ([1]; iv): 8% |
| CCCCCCCN(CC)CCCOc1ccc2c(c1OC)OCC2=O [Compound 244] | 6 | 9 | 11 | 0 | 9 | 9 | ~300 | change in vivo at 3 mg/kg [1, 8]: 17% |
| CCCCCCC[N+](CC)(CC)CCCOc1ccc2c(c1)OCC2=O.[Br-] [Compound 286, (3-oxo-6-coumaranoxypropyl)diethylheptyl ammonium bromide] | 17 | 29 | – | 5.7 ± 0.3 | 15.7 ± 5.5 | 15.7 ± 5.5 | 300 to 1000 | change in vivo at 3 mg/kg [1, 8]: 17.7 ± 7.3%; change in vivo at 0.1 mg/kg ([1]; 0.1 mg/kg i.d., ERP before drug = 100%): 0%; change in vivo at 0.3 mg/kg ([1]; 0.3 mg/kg i.d., ERP before drug = 100%): 0%; change in vivo at 1 mg/kg ([1]; 1 mg/kg i.d., ERP before drug = 100%): 10%; change in vivo at 3 mg/kg ([1]; 3 mg/kg i.d., ERP before drug = 100%): 19%; LD50 at 24 h (in vivo; ip, LD50 i.p., i.p.): 100 to 500 mg/kg |
| CCCCCCC[N+](CC)(CC)CCCOc1ccc2c(c1)OCC2O (stereo not shown) [Compound 470] | 13 | 16 | 20 | 0 | 0 | 2 | > 300 | change in vivo at 3 mg/kg [1, 8]: 8% |
| CCCCCCC[N+](CC)(CC)CCCOc1cccc2ccc(=O)oc12 [Compound 632] | – | 44 | 18 | – | – | – | > 300 | – |
| O=C1COc2cc(OCCCN3CCCCC3)ccc21 [Compound 1110] | – | – | – | – | – | – | > 300 | APD75 % (percent change in APD75) (Purkinje fiber; [3]): 10%; APD75 % (percent change in APD75) (Purkinje fiber; [4]): 20% |
| O=C1COc2cc(OCCCN3CCCC4CCCCC43)ccc21 (stereo not shown) [Compound 1158] | – | 10 | 13 | – | – | – | > 300 | – |
| CC[N+]1(CCCOc2ccc3c(c2)OCC3=O)CC(C)OC(C)C1 (stereo not shown) [Compound 1171] | 0 | 10 | – | – | – | – | > 300 | – |
| CC1CCN(CCCOc2ccc3c(c2)OCC3=O)CC(C)C1 (stereo not shown) [Compound 1194] | 16 | 19 | – | – | – | – | > 300 | – |
| CC(=O)NC1CCN(CCCOc2ccc3c(c2)OCC3=O)CC1 [Compound 1302] | – | 5 | 13 | – | – | – | > 300 | – |
| O=C1CCc2cc(OCCC[N+]34CN5CN(CN(C5)C3)C4)ccc21 [Compound 1400] | – | – | – | – | – | – | > 300 | – |
| O=C1COc2cc(OCCC[n+]3ccc(-c4ccccc4)cc3)ccc21 [Compound 1404] | – | – | – | – | – | – | > 300 | – |
